# Data reported in ChEMBL document CHEMBL4229359, “Simple 2(5H)-furanone derivatives with selective cytotoxicity towards non-small cell lung cancer cell line A549 - Synthesis, structure-activity relationship and biological evaluation” (Eur J Med Chem, 2018).
# Calls of active or inactive are those of the source. The calls are words filed in the database; no cut-off is given here.
# Columns and labels:
# [1] = tested on: Hep 3B2; assay: Cytotoxicity against human Hep3B cells assessed as reduction in cell viability after 72 hrs by MTT assay; type: functional, cell-based
# [2] = tested on: A549; assay: Cell cycle arrest in human A549 cells assessed as accumulation at S-phase at 10 uM after 72 hrs by propidium iodide staining based flow cytometry (reference value: 16.8 to 18.5%); type: functional
# [3] = tested on: A549; assay: Induction of apoptosis in human A549 cells assessed as late apoptotic cells at 20 uM after 72 hrs by Annexin V-FITC/propidium iodide staining based flow cytometry (reference value: 0.5%); type: functional
# [4] = tested on: A549; assay: Effect on cleaved caspase-3 protein expression in human A549 cells at 20 uM after 72 hrs by densitometric analysis; type: functional, cell-based
# [5] = tested on: A549; assay: Cell cycle arrest in human A549 cells assessed as accumulation at G1-phase at 10 uM after 24 hrs by propidium iodide staining based flow cytometry (reference value: 59.4%); type: functional
# [6] = tested on: A549; assay: Effect on Bax protein expression in human A549 cells at 20 uM after 72 hrs by densitometric analysis; type: functional, cell-based
# [7] = tested on: A549; assay: Anticlonogenic activity against human A549 cells assessed as colony formation at 10 uM after 72 hrs by crystal violet staining based microscopic method relative to control; type: functional
# [8] = tested on: A549; assay: Anticlonogenic activity against human A549 cells at 10 uM after 72 hrs by crystal violet staining based microscopic method relative to control; type: functional
# [9] = tested on: A549; assay: Synergistic anticlonogenic activity against human A549 cells at 10 uM after 72 hrs in presence of 10 uM erlotinib by crystal violet staining based microscopic method; type: functional
# [10] = tested on: A549; assay: Cell cycle arrest in human A549 cells assessed as accumulation at S-phase at 10 uM after 24 hrs by propidium iodide staining based flow cytometry (reference value: 34.1%); type: functional
# [11] = tested on: PC-3; assay: Cytotoxicity against human PC3 cells assessed as reduction in cell viability after 72 hrs by MTT assay; type: functional, cell-based; conditions: PC-3, 72 h
# [12] = tested on: A549; assay: Cell cycle arrest in human A549 cells assessed as accumulation at G1-phase at 10 uM after 72 hrs by propidium iodide staining based flow cytometry (reference value: 75.2 to 76%); type: functional
# [13] = tested on: HCT-116; assay: Cytotoxicity against human HCT116 cells assessed as reduction in cell viability after 72 hrs by MTT assay; type: functional, cell-based; conditions: HCT-116, 72 h
# [14] = tested on: HepG2; assay: Cytotoxicity against human HepG2 cells assessed as reduction in cell viability after 72 hrs by MTT assay; type: functional, cell-based; conditions: HepG2, 72 h
# [15] = tested on: A549; assay: Effect on Bcl2 protein expression in human A549 cells at 20 uM after 72 hrs by densitometric analysis; type: functional, cell-based
# [16] = tested on: A549; assay: Cell cycle arrest in human A549 cells assessed as accumulation at G2/M-phase at 10 uM after 24 hrs by propidium iodide staining based flow cytometry (reference value: 6.5%); type: functional
# [17] = Selectivity index, ratio of IC50 for human BEAS2B cells to IC50 for human A549 cells; type: toxicity
# [18] = tested on: U2OS; assay: Cytotoxicity against human U2OS cells assessed as reduction in cell viability after 72 hrs by MTT assay; type: functional, cell-based
# [19] = tested on: A549; assay: Anticlonogenic activity against human A549 cells assessed as colony formation at 5 uM after 72 hrs by crystal violet staining based microscopic method relative to control; type: functional
# [20] = tested on: A549; assay: Induction of mitosis in human A549 cells at 10 uM after 24 hrs by DAPI staining based fluorescence microscopic method; type: functional, cell-based
# [21] = tested on: A549; assay: Effect on Bad protein expression in human A549 cells at 20 uM after 72 hrs by densitometric analysis; type: functional, cell-based
# [22] = tested on: SJSA-1; assay: Cytotoxicity against human SJSA1 cells assessed as reduction in cell viability after 72 hrs by MTT assay; type: functional, cell-based; conditions: SJSA-1, 72 h
# [23] = tested on: A549; assay: Synergistic cell cycle arrest in human A549 cells assessed as accumulation at G1-phase at 10 uM after 72 hrs in presence of 10 uM erlotinib by propidium iodide staining based flow cytometry (reference value: 76%); type: functional
# [24] = tested on: A549; assay: Effect on Pro-caspase-3 protein expression in human A549 cells at 20 uM after 72 hrs by densitometric analysis; type: functional, cell-based
# [25] = tested on: A549; assay: Cell cycle arrest in human A549 cells assessed as accumulation at G2/M-phase at 10 uM after 72 hrs by propidium iodide staining based flow cytometry (reference value: 6.3 to 7.2%); type: functional
# [26] = tested on: A549; assay: Downregulation of Cyclin-B1 protein expression in human A549 cells at 10 uM after 72 hrs by Western blot analysis; type: functional, cell-based
# [27] = tested on: A549; assay: Induction of apoptosis in human A549 cells assessed as necrotic cells at 20 uM after 72 hrs by Annexin V-FITC/propidium iodide staining based flow cytometry (reference value: 0.6%); type: functional
# [28] = tested on: A549; assay: Induction of apoptosis in human A549 cells assessed as live cells at 20 uM after 72 hrs by Annexin V-FITC/propidium iodide staining based flow cytometry (reference value: 98.5%); type: functional
# [29] = tested on: A549; assay: Induction of apoptosis in human A549 cells assessed as caspase-3 cleavage at 20 uM after 72 hrs by Western blot analysis; type: functional, cell-based
# [30] = tested on: LoVo; assay: Cytotoxicity against human LoVo cells assessed as reduction in cell viability after 72 hrs by MTT assay; type: functional, cell-based
# [31] = tested on: HCT-116; assay: Cytotoxicity against p53-/- human HCT116 cells assessed as reduction in cell viability after 72 hrs by MTT assay; type: functional, cell-based; conditions: HCT-116, 72 h
# [32] = tested on: A549; assay: Cell cycle arrest in human A549 cells assessed as accumulation at G1-phase at 20 uM after 72 hrs by propidium iodide staining based flow cytometry (reference value: 61.5%); type: functional
# [33] = tested on: A549; assay: Synergistic cell cycle arrest in human A549 cells assessed as accumulation at G2/M-phase at 10 uM after 72 hrs in presence of 10 uM erlotinib by propidium iodide staining based flow cytometry (reference value: 7.2%); type: functional
# [34] = tested on: A549; assay: Synergistic cytotoxicity against human A549 cells assessed as reduction in cell viability at 10 uM after 72 hrs in presence of 5 to 20 uM erlotinib by MTT assay; type: functional, cell-based
# [35] = tested on: HT-29; assay: Cytotoxicity against human HT-29 cells assessed as reduction in cell viability after 72 hrs by MTT assay; type: functional, cell-based; conditions: HT-29, 72 h
# [36] = tested on: A549; assay: Induction of apoptosis in human A549 cells at 20 uM after 72 hrs by Annexin V-FITC/propidium iodide staining based flow cytometry relative to control; type: functional
# [37] = tested on: DU-145; assay: Cytotoxicity against human DU145 cells assessed as reduction in cell viability after 72 hrs by MTT assay; type: functional, cell-based; conditions: DU-145, 72 h
# [38] = tested on: BEAS-2B; assay: Cytotoxicity against human BEAS2B cells assessed as reduction in cell viability after 72 hrs by MTT assay; type: cell-based
# [39] = tested on: A549; assay: Synergistic cell cycle arrest in human A549 cells assessed as accumulation at S-phase at 10 uM after 72 hrs in presence of 10 uM erlotinib by propidium iodide staining based flow cytometry (reference value: 16.8%); type: functional
# [40] = tested on: A549; assay: Cytotoxicity against human A549 cells assessed as reduction in cell viability after 72 hrs by MTT assay; type: functional, cell-based; conditions: A549, 72 h
# [41] = tested on: A549; assay: Cell cycle arrest in human A549 cells assessed as accumulation at G2/M-phase at 20 uM after 72 hrs by propidium iodide staining based flow cytometry (reference value: 6.7%); type: functional
# [42] = tested on: A549; assay: Effect on Bcl-x protein expression in human A549 cells at 20 uM after 72 hrs by densitometric analysis; type: functional, cell-based
# [43] = tested on: A549; assay: Cell cycle arrest in human A549 cells assessed as accumulation at S-phase at 20 uM after 72 hrs by propidium iodide staining based flow cytometry (reference value: 31.9%); type: functional
# [44] = tested on: MCF7; assay: Cytotoxicity against human MCF7 cells assessed as reduction in cell viability after 72 hrs by MTT assay; type: functional, cell-based; conditions: MCF7, 72 h
# [45] = tested on: A549; assay: Induction of apoptosis in human A549 cells assessed as early apoptotic cells at 20 uM after 72 hrs by Annexin V-FITC/propidium iodide staining based flow cytometry (reference value: 0.4%); type: functional
structure (smiles),measurement,setting,value
CC(C)OC1OC(=O)C(Cl)=C1Cl (stereo not given),IC50,[1],19.8 µM
same,Activity,[2],19.3 - 26.2%
same,Activity,[3],25.7%
same,Activity,[4],inactive
same,Activity,[5],40%
same,Activity,[6],inactive
same,Activity,[7],15%
same,Activity,[8],86%
same,Activity,[9],89%
same,Activity,[10],36.6%
same,IC50,[11],4.8 µM
same,Activity,[12],59.9 - 68.2%
same,IC50,[13],7.2 µM
same,IC50,[14],16.8 µM
same,Activity,[15],inactive
same,Activity,[16],23.4%
same,log(RatioIC50),[17],0.61
same,IC50,[18],21.1 µM
same,Activity,[19],40%
same,Activity,[20],inactive
same,Activity,[21],inactive
same,IC50,[22],7.7 µM
same,Activity,[23],51.4%
same,Activity,[24],inactive
same,Activity,[25],12.5 - 13.9%
same,Activity,[26],Active
same,Activity,[27],3.9%
same,Activity,[28],63.9%
same,Activity,[29],inactive
same,IC50,[30],2.8 µM
same,IC50,[31],6.8 µM
same,Activity,[32],48%
same,Activity,[33],16.6%
same,Activity,[34],inactive
same,IC50,[35],7.2 µM
same,fold change (FC),[36],36
same,IC50,[37],25.4 µM
same,IC50,[38],27.5 µM
same,Activity,[39],31.9%
same,IC50,[40],6.7 µM
same,Activity,[41],4.7%
same,Activity,[42],inactive
same,Activity,[43],47.3%
same,IC50,[44],12.4 µM
same,Activity,[45],6.5%
